# Patent US20210346357A1 (priority 2020, published 2021)
# pIC50: −log10 of the molar value.
# What was measured:
# [1] = Pharmacokinetics in plasma and lung in mouse; assay type: in vivo; settings: single oral aspiration 0.2 mg/mL 50 μL
# Experimental: Assay 5: Pharmacokinetics in Plasma and Lung in Mouse
# Plasma and lung concentrations of test compounds and ratios thereof were determined in the following manner. BALB/c mice from Charles River Laboratories were used in the assay. Test compounds were individually formulated in 20% propylene glycol in pH 4 citrate buffer at a concentration of 0.2 mg/mL and 50 μL of the dosing solution was introduced into the trachea of a mouse by oral aspiration. At various time points (typically 0.167, 2, 6, 24 hr) post dosing, blood samples were removed via cardiac puncture and intact lungs were excised from the mice. Blood samples were centrifuged (Eppendorf centrifuge, 5804R) for 4 minutes at approximately 12,000 rpm at 4° C. to collect plasma. […] Plasma and lung concentrations of test compound were determined by LC-MS analysis against analytical standards constructed into a standard curve in the test matrix. A lung-to-plasma ratio was determined as the ratio of the lung AUC in μg hr/g to the plasma AUC in μg hr/mL, where AUC is conventionally defined as the area under the curve of test compound concentration vs. time.
# Abl2 = Abl2 (Homo sapiens, UniProt P42684); assay: biochemical; settings: ATP 10 μM
# [2] = system: Symptomatic Acute Lung Injury Associated with COVID-19; assay: Phase 2 study Part 1, inhaled compound 1 in hospitalized COVID-19 patients; settings: COVID-19 patients; for Modified Borg Dyspnea Score, Baseline, Mean: baseline value
# [3] = 1 mg, matched D1 and D7 samples
# Abl2, sequence (P42684 whole entry): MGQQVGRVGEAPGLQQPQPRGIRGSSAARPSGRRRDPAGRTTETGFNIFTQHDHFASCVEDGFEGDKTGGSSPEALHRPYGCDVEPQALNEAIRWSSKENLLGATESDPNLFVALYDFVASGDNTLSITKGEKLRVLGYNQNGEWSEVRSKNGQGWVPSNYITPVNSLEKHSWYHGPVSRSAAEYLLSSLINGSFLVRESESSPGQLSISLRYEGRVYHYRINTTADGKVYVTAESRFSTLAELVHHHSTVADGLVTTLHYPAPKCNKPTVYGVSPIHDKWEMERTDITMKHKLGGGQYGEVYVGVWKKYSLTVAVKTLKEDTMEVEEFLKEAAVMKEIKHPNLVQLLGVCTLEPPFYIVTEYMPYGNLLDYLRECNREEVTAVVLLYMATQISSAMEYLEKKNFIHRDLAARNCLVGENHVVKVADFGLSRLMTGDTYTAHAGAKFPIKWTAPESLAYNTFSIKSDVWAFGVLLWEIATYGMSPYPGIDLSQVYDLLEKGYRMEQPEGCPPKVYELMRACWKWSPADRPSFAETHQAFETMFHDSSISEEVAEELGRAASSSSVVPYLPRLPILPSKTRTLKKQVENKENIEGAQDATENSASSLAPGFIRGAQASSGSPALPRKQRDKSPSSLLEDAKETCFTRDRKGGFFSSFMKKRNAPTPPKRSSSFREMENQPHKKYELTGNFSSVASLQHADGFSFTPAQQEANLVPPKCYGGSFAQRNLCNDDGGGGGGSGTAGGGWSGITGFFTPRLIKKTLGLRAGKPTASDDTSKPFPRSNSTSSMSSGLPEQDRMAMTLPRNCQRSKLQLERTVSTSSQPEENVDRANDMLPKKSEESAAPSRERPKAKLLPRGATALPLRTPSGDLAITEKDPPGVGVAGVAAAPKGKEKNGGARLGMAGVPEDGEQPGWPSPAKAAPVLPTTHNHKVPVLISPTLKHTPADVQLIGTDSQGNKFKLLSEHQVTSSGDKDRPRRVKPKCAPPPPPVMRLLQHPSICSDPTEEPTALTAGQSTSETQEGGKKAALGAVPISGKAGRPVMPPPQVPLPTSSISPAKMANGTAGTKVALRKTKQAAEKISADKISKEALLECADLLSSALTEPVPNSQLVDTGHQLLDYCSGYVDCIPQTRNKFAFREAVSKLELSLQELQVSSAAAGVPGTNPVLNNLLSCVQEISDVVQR
compound,measurement,setting,value
"CCc1cc(O)ccc1-c1ccc2c(-c3nc4c([nH]3)CN(C(C)C)[C@H](C(=O)N3CC(N(C)C)C3)C4)n[nH]c2c1 [Compound 1, (S)-(3-(dimethylamino)azetidin-1-yl)(2-(6-(2-ethyl-4-hydroxyphenyl)-1H-indazol-3-yl)-5-isopropyl-4,5,6,7-tetrahydro-3H-imidazo[4,5-c]pyridin-6-yl)methanone]",Lung Tissue AUC(0-24),[1],54.5 µg·h/g
same,Plasma AUC(0-24),[1],0.943 µg·h/mL
same,pIC50,Abl2,7.82
same,exposures provided by the loading dose on Day 1,[2],consistent with pseudo steady-state
same,"Clinical Status at Day 28: 1-Not hospitalized, no limitations on activities, number",[2]; 1 mg,5
same,"Clinical Status at Day 28: 1-Not hospitalized, no limitations on activities, percent",[2]; 1 mg,83.3%
same,"Clinical Status at Day 28: 2-Not hospitalized, but with limitations on activities and/or requiring home oxygen, number",[2]; 1 mg,0
same,"Clinical Status at Day 28: 3-Hospitalized, not requiring supplemental oxygen, and no longer requiring ongoing medical care, number",[2]; 1 mg,0
same,"Clinical Status at Day 28: 4-Hospitalized, not requiring supplemental oxygen, but requiring ongoing medical care, number",[2]; 1 mg,0
same,"Clinical Status at Day 28: 5-Hospitalized, requiring supplemental oxygen, number",[2]; 1 mg,0
same,"Clinical Status at Day 28: 6-Hospitalized, on non-invasive ventilation or high-flow oxygen devices, number",[2]; 1 mg,0
same,"Clinical Status at Day 28: 7-Hospitalized, on invasive mechanical ventilation or extracorporeal membrane oxygenation, number",[2]; 1 mg,0
same,"Clinical Status at Day 28: 8-Death, number",[2]; 1 mg,1
same,"Clinical Status at Day 28: 8-Death, percent",[2]; 1 mg,16.7%
same,"Still in Hospital at Day 28, number",[2]; 1 mg,0
same,Time to Hospital Discharge (Days) Median,[2]; 1 mg,18.5 days
same,"Modified Borg Dyspnea Score, Baseline, Mean",[2]; 1 mg group,6.17
same,"Modified Borg Dyspnea Score Change from Baseline, Mean","[2]; 1 mg, Day 2",0.33
same,"Modified Borg Dyspnea Score Change from Baseline, Mean","[2]; 1 mg, Day 3",−0.33
same,"Modified Borg Dyspnea Score Change from Baseline, Mean","[2]; 1 mg, Day 4",−0.83
same,"Modified Borg Dyspnea Score Change from Baseline, Mean","[2]; 1 mg, Day 5",−1.17
same,"Modified Borg Dyspnea Score Change from Baseline, Mean","[2]; 1 mg, Day 6",−1.33
same,"Hospital Discharge, number","[2]; 1 mg, Day 7",0
same,"Modified Borg Dyspnea Score Change from Baseline, Mean","[2]; 1 mg, Day 7",−1.50
same,"Hospital Discharge, number","[2]; 1 mg, Day 14",2
same,"Hospital Discharge, percent","[2]; 1 mg, Day 14",33.3%
same,"Hospital Discharge, number","[2]; 1 mg, Day 21",3
same,"Hospital Discharge, percent","[2]; 1 mg, Day 21",50.0%
same,"# Subjects Respiratory Failure-Free, percent","[2]; 1 mg, Day 28",83.3%
same,"Hospital Discharge, number","[2]; 1 mg, Day 28",5
same,"Hospital Discharge, percent","[2]; 1 mg, Day 28",83.3%
same,Proportion of Subjects Alive and Respiratory Failure-free,"[2]; 1 mg, Day 28",83.3%
same,"Proportion of Subjects Alive and Respiratory Failure-free, number","[2]; 1 mg, Day 28",5
same,# Subjects Respiratory Failure-Free,"[2]; 1 mg, Day 28, number of subjects",5
same,"IFN-γ, within-group percent difference in geometric mean from baseline",[2]; [3],−46.12%
same,"IL-6, within-group percent difference in geometric mean from baseline",[2]; [3],29.45%
same,"IL-8, within-group percent difference in geometric mean from baseline",[2]; [3],−16.78%
same,"IL-10, within-group percent difference in geometric mean from baseline",[2]; [3],−26.59%
same,"IP-10, within-group percent difference in geometric mean from baseline",[2]; [3],−20.65%
same,"MCP-1, within-group percent difference in geometric mean from baseline",[2]; [3],13.90%
same,"MDC, within-group percent difference in geometric mean from baseline",[2]; [3],−55.03%
same,"RAGE, within-group percent difference in geometric mean from baseline",[2]; [3],−14.22%
same,"TARC, within-group percent difference in geometric mean from baseline",[2]; [3],−57.21%
same,"hsCRP, within-group percent difference in geometric mean from baseline",[2]; [3],−34.85%
same,Time to Hospital Discharge (Days) Mean ± SD,"[2]; 1 mg, still hospitalized or died = 28 days",18.83 ± 6.795 days
same,"# Subjects Alive, percent","[2]; 1 mg, through Day 28",83.3%
same,"Died (All-Cause Mortality), percent","[2]; 1 mg, through Day 28",16.7%
same,# Subjects Alive,"[2]; 1 mg, through Day 28, number of subjects",5
same,"Clinical Status at Day 28: 1-Not hospitalized, no limitations on activities, number",[2]; 3 mg,5
same,"Clinical Status at Day 28: 1-Not hospitalized, no limitations on activities, percent",[2]; 3 mg,83.3%
same,"Clinical Status at Day 28: 2-Not hospitalized, but with limitations on activities and/or requiring home oxygen, number",[2]; 3 mg,0
same,"Clinical Status at Day 28: 3-Hospitalized, not requiring supplemental oxygen, and no longer requiring ongoing medical care, number",[2]; 3 mg,0
same,"Clinical Status at Day 28: 4-Hospitalized, not requiring supplemental oxygen, but requiring ongoing medical care, number",[2]; 3 mg,1
same,"Clinical Status at Day 28: 4-Hospitalized, not requiring supplemental oxygen, but requiring ongoing medical care, percent",[2]; 3 mg,16.7%
same,"Clinical Status at Day 28: 5-Hospitalized, requiring supplemental oxygen, number",[2]; 3 mg,0
same,"Clinical Status at Day 28: 6-Hospitalized, on non-invasive ventilation or high-flow oxygen devices, number",[2]; 3 mg,0
same,"Clinical Status at Day 28: 7-Hospitalized, on invasive mechanical ventilation or extracorporeal membrane oxygenation, number",[2]; 3 mg,0
same,"Clinical Status at Day 28: 8-Death, number",[2]; 3 mg,0
same,"Still in Hospital at Day 28, number",[2]; 3 mg,0
same,Time to Hospital Discharge (Days) Median,[2]; 3 mg,17.0 days
same,"Modified Borg Dyspnea Score, Baseline, Mean",[2]; 3 mg group,6.71
same,"Modified Borg Dyspnea Score Change from Baseline, Mean","[2]; 3 mg, Day 2",−0.43
same,"Modified Borg Dyspnea Score Change from Baseline, Mean","[2]; 3 mg, Day 3",−1.00
same,"Modified Borg Dyspnea Score Change from Baseline, Mean","[2]; 3 mg, Day 4",−0.50
same,"Modified Borg Dyspnea Score Change from Baseline, Mean","[2]; 3 mg, Day 5",−1.20
same,"Modified Borg Dyspnea Score Change from Baseline, Mean","[2]; 3 mg, Day 6",−1.20
same,"Hospital Discharge, number","[2]; 3 mg, Day 7",1
same,"Hospital Discharge, percent","[2]; 3 mg, Day 7",14.3%
same,"Modified Borg Dyspnea Score Change from Baseline, Mean","[2]; 3 mg, Day 7",−1.80
same,"Hospital Discharge, number","[2]; 3 mg, Day 14",2
same,"Hospital Discharge, percent","[2]; 3 mg, Day 14",28.6%
same,"Hospital Discharge, number","[2]; 3 mg, Day 21",6
